Assay results published in patent publication US7601716B2, “Pyridopyrazines and derivatives thereof as ALK and c-Met inhibitors” (Cephalon, Inc., priority 2006, dated 2009).

Key:
[1] = target: baculovirus-expressed ALK (Homo sapiens, UniProt Q9UM73); assay: ALK Kinase Assay (ELISA/TRF, PLC-γ substrate); format: biochemical; settings: read-out: ALK Kinase Inhibition (IC50); also: 1 µM ATP (Km level)
How it was run: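 ALK at 30 ng/ml phosphorylated plate-bound PLC-γ–GST fusion (coated from 10 μg/mL) during 15 minutes at 37° C. Product was detected with Eu-N1 PT66 anti-phosphotyrosine antibody and measured by time-resolved fluorescence.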

[2] = target: T1, NPM-ALK (Homo sapiens, UniProt Q9UM73); assay: ALK Cellular Assay (phospho-NPM-ALK immunoblot / ALK tyrosine phosphorylation ELISA); format: cell-based
T1 construct: a fusion protein consisting of nucleophosmin (NMP) and the intracellular domain of ALK; the other entry of the earlier key: NPM1 (P06748, Nucleophosmin)
Procedure: Immunoblotting of phospho-NPM-ALK and total NPM-ALK from cell lysates was carried out according to the protocols provided by the antibody suppliers. In brief, after treatment of Example compounds, cells were lysed in Frak lysis buffer [10 mM Tris, pH 7.5, 1% Triton X-100, 50 mM sodium chloride, 20 mM sodium fluoride, 2 mM sodium pyrophosphate, 0.1% BSA, plus freshly prepared 1 mM activated sodium vanadate, 1 mM dithiothreitol (#165680050, ARCOS Organics, Geel, Belgium), and 1 mM PMSF (#837091, Boehringer Mannheim Biochemicals, Indianapolis, Ind.), protease inhibitors cocktail III (#539134-1Set, Calbiochem, 1:100 dilution)]. After brief sonication, the lysates were cleared by centrifugation, mixed with sample buffer and subjected to SDS-PAGE. Following transfer to membranes, the membranes were blotted with either rabbit phospho-NPM-ALK(Y664) (Cat^#3341) or ALK antibody (Cat^#3342) from Cell Signaling Technology (Beverly, Mass.), and then the HRP-conjugated goat anti-rabbit antibodies (Santa Cruz, Calif.) after washed in TBS/0.2% Tween-20. The protein bands were visualized with ECL Western Blotting detection reagents (RPN2106, Amersham Biosciences, Buckinghamshire, UK) and quantitated with gel-pro analyzer 3.1 software.
To measure ALK tyrosine phosphorylation in cells with an ELISA assay, fluoronunc plates (Cat^#437796, Nalge Nunc, Rochester, N.Y.) were pre-coated with goat anti-mouse IgG, and incubated with the capture mouse ALK antibody (Cat^#35-4300, Zymed, Seattle, Wash.) diluted 1:1000 in Superblock (Pierce, Rockford, Ill.). Following blocking, cell lysates were added to plates and incubated overnight at 4° C. Plates were incubated with the detecting antibody, anti-phospho-ALK (Y664) (Cell Signaling Technology), diluted at 1:2000, followed by incubation with goat anti-rabbit-IgG alkaline phosphatase to amplify the detection. Wells were exposed to the fluorogenic substrate 4-MeUP (#3368-04-5, Calbiochem) and the signal quantified using a CytoFluor® (series 4000) Fluorescence Multi-Well Plate Reader (Applied Biosystems, Foster City, Calif.).

[3] = target: T2, c-Met (cytoplasmic domain) (Homo sapiens, UniProt P08581); assay: c-Met Kinase Assay (ELISA/TRF, PLC-γ substrate); format: biochemical; settings: 3 μM ATP (Km level); read-out: c-Met Kinase Inhibition (IC50)
T2 construct: Reactions were initiated with 30 ng/mL c-Met (cytoplasmic domain, Invitrogen Corporation #PV3143); purchased Invitrogen Corporation PV3143
How it was run: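 Readout is TRF of europium anti-phosphotyrosine (PT66) bound to GST–PLC-γ substrate coated at 10 μg/mL, after a 15 min, 37 °C reaction started with 30 ng/mL c-Met cytoplasmic domain. Percent inhibition plotted against log compound concentration and fitted (variable slope) for IC50.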

[4] = target: T3, c-Met (phospho-c-Met) in HT29 cells (Homo sapiens, UniProt P08581); assay: c-Met Cellular Activity/Autophosphorylation Assay, HT29 cells; format: cell-based; settings: for inhibition at 1 µM: HT-29, 1 μM compound, read-out: c-Met autophosphorylation inhibition score, HT29 Cells (1 μM); for inhibition at 3 µM: HT-29, 3 μM compound, read-out: c-Met autophosphorylation inhibition score, HT29 Cells (3 μM)
T3 construct: endogenous in cells; host or cells: HT29, A549 (HGF-stimulated), GTL-16
Procedure: (§1) HT29 and GTL-16 cells were serum starved for one hour in media containing 0.05% BSA and varying concentrations of Example compounds (1-10 μM). A549 cells were serum starved overnight in media containing 0.05% BSA then treated for one hour with Example compounds followed by a 15 minute stimulation with 50 ng/mL HGF (Peprotech, Rocky Hill, N.J.), respectively. Samples were resolved by electrophoresis on a 3-8% Tris-Acetate gel (40 ma/gel) and then transferred to a nitrocellulose membrane. Membranes were blocked for one hour at room temperature in Odyssey Blocking Buffer (Licor #927-40000) diluted 1:1 with 1×TBS. Membranes were then co-incubated overnight at 4° C. with primary antibodies [total Met (Cell Signaling, #3127) and Phospho-Met (Biosource, #44-888G) 1:1000 each in Odyssey Blocking Buffer diluted 1:1 with 1×TBS-T 0.05%]. The next day, membranes were washed and co-incubated with secondary antibodies [Goat anti mouse IRDye800 (Rockland, #610-132-121) and Goat anti rabbit Alexa fluor 700 (Molecular Probes, #A21038) 1:10,000] in Odyssey Blocking Buffer diluted 1:1 with 1×TBS-T 0.05% for one hour at room temperature protected from light. Blots were then washed and read on the Odyssey Infrared Imager. Total c-Met signal was visualized at 800 nm detection and phospho-c-Met signal was visualized at 700 nm detection.

[5] = target: T4, c-Met (phospho-c-Met) in A549 cells (Homo sapiens, UniProt P08581); assay: c-Met Cellular Activity/Autophosphorylation Assay, A549 cells (HGF stimulated); format: cell-based; settings: 50 ng/mL HGF; for inhibition at 1 µM: 1 μM compound, read-out: c-Met autophosphorylation inhibition score, A549 Cells (1 μM); for inhibition at 3 µM: 3 μM compound, read-out: c-Met autophosphorylation inhibition score, A549 Cells (3 μM)
T4 construct: endogenous in cells; host or cells: HT29, A549 (HGF-stimulated), GTL-16
Procedure: as §1

T3 sequence (P08581 25-1390): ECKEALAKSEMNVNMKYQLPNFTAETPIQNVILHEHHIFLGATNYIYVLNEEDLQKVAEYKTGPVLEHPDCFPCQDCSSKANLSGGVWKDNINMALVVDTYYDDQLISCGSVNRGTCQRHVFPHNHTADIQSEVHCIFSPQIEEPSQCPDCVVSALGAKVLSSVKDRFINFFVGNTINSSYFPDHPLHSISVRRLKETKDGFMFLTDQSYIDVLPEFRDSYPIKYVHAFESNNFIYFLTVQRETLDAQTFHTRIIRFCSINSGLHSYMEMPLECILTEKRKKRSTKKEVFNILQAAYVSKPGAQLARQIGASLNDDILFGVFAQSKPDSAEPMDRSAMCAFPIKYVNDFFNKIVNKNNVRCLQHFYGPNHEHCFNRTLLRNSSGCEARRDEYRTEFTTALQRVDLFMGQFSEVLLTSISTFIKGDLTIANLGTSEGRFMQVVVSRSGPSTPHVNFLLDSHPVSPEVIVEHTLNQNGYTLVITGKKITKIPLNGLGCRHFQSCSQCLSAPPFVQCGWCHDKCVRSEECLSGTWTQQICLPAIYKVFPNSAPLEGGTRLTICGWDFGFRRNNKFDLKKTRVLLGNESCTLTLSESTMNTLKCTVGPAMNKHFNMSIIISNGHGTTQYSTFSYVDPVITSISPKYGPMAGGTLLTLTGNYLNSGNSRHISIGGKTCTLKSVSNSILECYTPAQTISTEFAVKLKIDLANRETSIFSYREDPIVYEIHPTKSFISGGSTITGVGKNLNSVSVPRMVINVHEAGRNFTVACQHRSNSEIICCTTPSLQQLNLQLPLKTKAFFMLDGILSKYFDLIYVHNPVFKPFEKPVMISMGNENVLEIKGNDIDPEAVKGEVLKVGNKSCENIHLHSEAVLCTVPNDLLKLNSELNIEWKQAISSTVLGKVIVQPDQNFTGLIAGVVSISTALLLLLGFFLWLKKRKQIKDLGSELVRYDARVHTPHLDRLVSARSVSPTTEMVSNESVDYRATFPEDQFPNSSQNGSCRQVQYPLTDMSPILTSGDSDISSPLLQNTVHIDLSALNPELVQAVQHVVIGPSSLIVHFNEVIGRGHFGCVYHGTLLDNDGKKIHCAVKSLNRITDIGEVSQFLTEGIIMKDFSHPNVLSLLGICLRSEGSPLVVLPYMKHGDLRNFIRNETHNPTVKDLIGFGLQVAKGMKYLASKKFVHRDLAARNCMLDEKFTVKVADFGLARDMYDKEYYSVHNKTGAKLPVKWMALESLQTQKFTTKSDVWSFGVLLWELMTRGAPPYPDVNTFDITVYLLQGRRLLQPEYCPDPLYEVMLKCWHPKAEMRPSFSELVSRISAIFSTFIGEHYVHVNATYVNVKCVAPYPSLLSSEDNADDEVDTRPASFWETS
T4 sequence (P08581 25-1390): as above
Sequence of baculovirus-expressed ALK (Q9UM73 19-1620): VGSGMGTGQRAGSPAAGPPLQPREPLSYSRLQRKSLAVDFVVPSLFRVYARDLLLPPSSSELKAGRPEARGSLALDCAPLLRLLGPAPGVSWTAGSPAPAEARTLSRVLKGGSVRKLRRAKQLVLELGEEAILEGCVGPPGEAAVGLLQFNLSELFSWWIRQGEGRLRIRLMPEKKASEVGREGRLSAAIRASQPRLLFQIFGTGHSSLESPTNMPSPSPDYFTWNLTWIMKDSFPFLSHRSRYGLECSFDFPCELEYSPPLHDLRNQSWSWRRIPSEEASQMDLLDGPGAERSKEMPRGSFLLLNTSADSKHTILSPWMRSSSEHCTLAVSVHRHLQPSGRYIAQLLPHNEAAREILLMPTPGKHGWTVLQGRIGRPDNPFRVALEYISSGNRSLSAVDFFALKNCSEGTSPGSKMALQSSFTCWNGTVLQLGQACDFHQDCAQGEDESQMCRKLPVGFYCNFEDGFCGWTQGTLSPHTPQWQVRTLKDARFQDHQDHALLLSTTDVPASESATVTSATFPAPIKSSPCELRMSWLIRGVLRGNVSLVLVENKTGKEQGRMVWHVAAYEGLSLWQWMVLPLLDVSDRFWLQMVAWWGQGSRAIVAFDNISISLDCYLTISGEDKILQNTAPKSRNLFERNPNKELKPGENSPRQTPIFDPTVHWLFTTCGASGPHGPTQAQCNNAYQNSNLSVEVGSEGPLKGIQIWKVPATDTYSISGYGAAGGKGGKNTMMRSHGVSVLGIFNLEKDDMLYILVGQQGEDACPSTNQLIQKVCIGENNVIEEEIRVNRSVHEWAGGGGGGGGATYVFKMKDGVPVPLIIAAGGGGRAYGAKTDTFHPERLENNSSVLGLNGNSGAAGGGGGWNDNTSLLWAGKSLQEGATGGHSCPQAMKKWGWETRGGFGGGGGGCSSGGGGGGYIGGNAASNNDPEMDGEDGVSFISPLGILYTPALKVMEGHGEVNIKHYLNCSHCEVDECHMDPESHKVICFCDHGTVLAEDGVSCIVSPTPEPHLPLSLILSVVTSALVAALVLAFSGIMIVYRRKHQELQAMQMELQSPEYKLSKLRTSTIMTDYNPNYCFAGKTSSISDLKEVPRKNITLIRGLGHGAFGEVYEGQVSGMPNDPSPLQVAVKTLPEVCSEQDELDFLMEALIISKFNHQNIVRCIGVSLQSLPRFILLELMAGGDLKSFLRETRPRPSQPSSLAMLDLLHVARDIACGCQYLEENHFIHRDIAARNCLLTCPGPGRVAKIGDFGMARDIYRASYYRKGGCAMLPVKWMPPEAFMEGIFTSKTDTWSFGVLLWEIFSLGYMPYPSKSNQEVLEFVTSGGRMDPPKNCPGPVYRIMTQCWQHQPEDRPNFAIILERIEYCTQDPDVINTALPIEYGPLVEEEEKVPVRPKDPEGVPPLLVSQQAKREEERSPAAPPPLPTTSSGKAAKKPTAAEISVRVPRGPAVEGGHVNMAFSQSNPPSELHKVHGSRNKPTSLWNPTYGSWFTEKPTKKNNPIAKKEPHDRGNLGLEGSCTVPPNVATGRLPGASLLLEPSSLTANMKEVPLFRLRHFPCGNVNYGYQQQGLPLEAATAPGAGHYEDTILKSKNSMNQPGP
T1 sequence (Q9UM73 with tags, fused parts or gaps): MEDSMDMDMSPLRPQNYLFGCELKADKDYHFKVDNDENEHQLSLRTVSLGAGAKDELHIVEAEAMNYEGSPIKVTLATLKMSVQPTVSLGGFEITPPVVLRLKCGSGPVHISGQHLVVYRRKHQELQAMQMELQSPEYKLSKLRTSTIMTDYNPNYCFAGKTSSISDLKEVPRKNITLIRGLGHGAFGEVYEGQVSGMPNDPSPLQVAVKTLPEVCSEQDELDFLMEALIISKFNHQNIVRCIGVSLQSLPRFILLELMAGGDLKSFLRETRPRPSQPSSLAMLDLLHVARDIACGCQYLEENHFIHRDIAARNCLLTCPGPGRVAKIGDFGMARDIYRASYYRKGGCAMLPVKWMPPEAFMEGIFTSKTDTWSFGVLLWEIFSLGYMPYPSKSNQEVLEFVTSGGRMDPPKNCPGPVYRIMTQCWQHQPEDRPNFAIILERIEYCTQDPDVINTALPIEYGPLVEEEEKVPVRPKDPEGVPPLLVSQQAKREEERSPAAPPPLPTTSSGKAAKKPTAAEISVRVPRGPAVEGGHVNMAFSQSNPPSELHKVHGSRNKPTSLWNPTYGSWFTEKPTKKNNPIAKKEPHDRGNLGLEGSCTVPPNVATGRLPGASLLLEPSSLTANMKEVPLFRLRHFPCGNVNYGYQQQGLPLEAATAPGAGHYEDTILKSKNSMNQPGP

CN1CCN(c2ccc(-c3cnc4c(c3)N(Cc3cc(F)ccc3F)CCN4)cn2)CC1 [Example 69, 1-(2,5-Difluorobenzyl)-7-[6-(4-methylpiperazin-1-yl)pyridin-3-yl]-1,2,3,4-tetrahydropyrido[2,3-b]pyrazine]
melting point: 192 to 193 °C
IC50 [1]: < 0.1 µM
IC50 [2]: 0.751 to 1 µM
IC50 [3]: 1 to 10 µM
inhibition at 1 µM [4]: 0 to 25%
inhibition at 3 µM [4]: 0 to 25%
inhibition at 1 µM [5]: 0 to 25%
inhibition at 3 µM [5]: 0 to 25%

O=C(c1ccc(-c2cnc3c(c2)N(Cc2c(F)ccc(F)c2Cl)CCN3)cc1)N1CCC(N2CCCC2)CC1 [Example 99, {4-[1-(2-Chloro-3,6-difluorobenzyl)-1,2,3,4-tetrahydropyrido[2,3-b]pyrazin-7-yl]phenyl}-(4-(pyrrolidin-1-yl)piperidin-1-yl)methanone]
melting point: 93 to 95 °C
IC50 [1]: < 0.1 µM
IC50 [2]: ≤ 0.25 µM
IC50 [3]: 0.1 to 1 µM
inhibition at 1 µM [4]: 0 to 25%
inhibition at 3 µM [4]: 0 to 25%
inhibition at 1 µM [5]: 0 to 25%
inhibition at 3 µM [5]: 0 to 25%

O=C(c1ccc(-c2cnc3c(c2)N(Cc2c(F)ccc(F)c2Cl)CCN3)cc1)N1CCC[C@H]1CN1CCCC1 [Example 100, {4-[1-(2-Chloro-3,6-difluorobenzyl)-1,2,3,4-tetrahydropyrido[2,3-b]pyrazin-7-yl]phenyl}-((S)-2-((pyrrolidin-1-yl)methyl)pyrrolidin-1-yl)methanone]
IC50 [1]: < 0.1 µM
IC50 [2]: ≤ 0.25 µM
IC50 [3]: 0.1 to 1 µM
inhibition at 1 µM [4]: 0 to 25%
inhibition at 3 µM [4]: 0 to 25%
inhibition at 1 µM [5]: 0 to 25%
inhibition at 3 µM [5]: 0 to 25%

O=C(c1ccc(-c2cnc3c(c2)N(Cc2cc(Cl)ccc2C(F)(F)F)CCN3)cc1)N1CCC(N2CCCC2)CC1 [Example 117, {4-[1-(5-Chloro-2-trifluoromethylbenzyl)-1,2,3,4-tetrahydropyrido[2,3-b]pyrazin-7-yl]phenyl}-(4-(pyrrolidin-1-yl)piperidin-1-yl)methanone]
IC50 [1]: < 0.1 µM
IC50 [2]: ≤ 0.25 µM
IC50 [3]: 1 to 10 µM
inhibition at 1 µM [4]: 0 to 25%
inhibition at 3 µM [4]: 0 to 25%

O=C(c1ccc(-c2cnc3c(c2)N(Cc2cc(Cl)ccc2Cl)CCN3)cc1)N1CCC[C@H]1CN1CCCC1 [Example 159, S-{4-[1-(2,5-Dichlorobenzyl)-1,2,3,4-tetrahydropyrido[2,3-b]pyrazin-7-yl]phenyl}-{2-[(pyrrolidin-1-yl)methyl]pyrrolidin-1-yl}methanone]
IC50 [1]: < 0.1 µM
IC50 [2]: 0.251 to 0.5 µM
IC50 [3]: 1 to 10 µM
inhibition at 1 µM [4]: 0 to 25%
inhibition at 3 µM [4]: 0 to 25%
inhibition at 1 µM [5]: 0 to 25%
inhibition at 3 µM [5]: 0 to 25%

O=C(c1ccc(-c2cnc3c(c2)N(Cc2cc(Cl)ccc2Cl)CCN3)cc1)N1CCC(N2CCCC2)CC1 [Example 160, {4-[1-(2,5-Dichlorobenzyl)-1,2,3,4-tetrahydropyrido[2,3-b]pyrazin-7-yl]phenyl}-(4-(pyrrolidin-1-yl)piperidin-1-yl)methanone]
IC50 [1]: < 0.1 µM
IC50 [2]: ≤ 0.25 µM
IC50 [3]: 0.1 to 1 µM
inhibition at 1 µM [4]: 26 to 50%
inhibition at 3 µM [4]: 26 to 50%
inhibition at 1 µM [5]: 0 to 25%
inhibition at 3 µM [5]: 0 to 25%

O=C(c1ccc(-c2cnc3c(c2)N(Cc2c(Cl)cccc2Cl)CCN3)cc1)N1CCC(N2CCCC2)CC1 [Example 163, {4-[1-(2,6-Dichlorobenzyl)-1,2,3,4-tetrahydropyrido[2,3-b]pyrazin-7-yl]phenyl}-(4-(pyrrolidin-1-yl)piperidin-1-yl)methanone]
IC50 [1]: < 0.1 µM
IC50 [2]: 0.751 to 1 µM
IC50 [3]: 0.1 to 1 µM
inhibition at 1 µM [4]: 0 to 25%
inhibition at 3 µM [4]: 26 to 50%
inhibition at 1 µM [5]: 0 to 25%
inhibition at 3 µM [5]: 0 to 25%

O=C(c1ccc(-c2cnc3c(c2)N(Cc2c(Cl)cccc2Cl)CCN3)cc1)N1CCC[C@H]1CN1CCCC1 [Example 164, {4-[1-(2,6-Dichlorobenzyl)-1,2,3,4-tetrahydropyrido[2,3-b]pyrazin-7-yl]phenyl}-{2-[(pyrrolidin-1-yl)methyl]pyrrolidin-1-yl}methanone]
IC50 [1]: < 0.1 µM
IC50 [2]: 0.251 to 0.5 µM
IC50 [3]: 1 to 10 µM
inhibition at 1 µM [4]: 0 to 25%
inhibition at 3 µM [4]: 0 to 25%
inhibition at 1 µM [5]: 0 to 25%
inhibition at 3 µM [5]: 0 to 25%

CC(c1c(F)ccc(F)c1Cl)N1CCNc2ncc(-c3ccc(N4CCN(C)CC4)nc3)cc21 (centres unmarked) [Example 177, 1-[1-(2-Chloro-3,6-difluorophenyl)ethyl]-7-[6-(4-methylpiperazin-1-yl)pyridin-3-yl]-1,2,3,4-tetrahydropyrido[2,3-b]pyrazine]
IC50 [1]: < 0.1 µM
IC50 [2]: 0.251 to 0.5 µM
IC50 [3]: 1 to 10 µM
inhibition at 1 µM [4]: 26 to 50%
inhibition at 3 µM [4]: 26 to 50%
inhibition at 1 µM [5]: 0 to 25%
inhibition at 3 µM [5]: 0 to 25%

CN1CCN(c2cc(-c3cnc4c(c3)N(Cc3c(F)ccc(F)c3Cl)CCN4)ccn2)CC1 [Example 190, 1-(2-Chloro-3,6-difluorobenzyl)-7-[2-(4-methylpiperazin-1-yl)pyridin-4-yl]-1,2,3,4-tetrahydropyrido[2,3-b]pyrazine]
IC50 [1]: < 0.1 µM
IC50 [2]: 0.501 to 0.75 µM
IC50 [3]: 0.1 to 1 µM
inhibition at 1 µM [5]: 0 to 25%
inhibition at 3 µM [5]: 0 to 25%

FC(F)(F)c1ccc(Cl)cc1CN1CCNc2ncc(-c3ccnc(N4CCNCC4)c3)cc21 [Example 198, 1-[5-Chloro-2-(trifluoromethyl)benzyl]-7-(2-piperazin-1-yl-pyridin-4-yl)-1,2,3,4-tetrahydro-pyrido[2,3-b]pyrazine]
melting point: 189 °C
IC50 [1]: < 0.1 µM
IC50 [2]: ≤ 0.25 µM
IC50 [3]: 0.1 to 1 µM

CC(=O)N1CCN(c2cc(-c3cnc4c(c3)N(Cc3cc(Cl)ccc3C(F)(F)F)CCN4)ccn2)CC1 [Example 199, 1-[4-(4-{1-[5-Chloro-2-(trifluoromethyl)benzyl]-1,2,3,4-tetrahydro-pyrido[2,3-b]pyrazin-7-yl}pyridin-2-yl)piperazin-1-yl]ethanone]
melting point: 241 °C
IC50 [1]: < 0.1 µM
IC50 [2]: ≤ 0.25 µM
IC50 [3]: 1 to 10 µM

FC(F)(F)c1ccc(Cl)cc1CN1CCNc2ncc(-c3cn[nH]c3)cc21 [Example 200, 1-[5-Chloro-2-(trifluoromethyl)benzyl]-7-(1H-pyrazol-4-yl)-1,2,3,4-tetrahydro-pyrido[2,3-b]pyrazine]
melting point: 271 °C
IC50 [1]: 0.1 to 1 µM
IC50 [2]: 0.751 to 1 µM
IC50 [3]: 1 to 10 µM
